Experimental data from patent US10544090B2, “Anthraquinone analogs and methods of making and using thereof” (Georgia State University Research Foundation, Inc., priority 2012, dated 2020).

Tests used:
HeLa [1] = assay: Cytotoxicity against cancer cell lines (Example 5), Hela; format: cell-based; conditions: Tables 5-12
Procedure: (§1) All of the compounds synthesized were tested against a number of cancer cell lines: Hela KB, Cos7, Molt4, K562, EU1, and T98G. The cancer cell lines vary from leukemia cell lines (Molt4, EU, K562) to solid-state tumor cell lines (Hela, KB, Cos7) and the drug resistant cell lines (T98G).

KB = assay: Cytotoxicity against cancer cell lines (Example 5), KB; format: cell-based; conditions: Tables 5-12
Procedure: as §1

Cos7 = assay: Cytotoxicity against cancer cell lines (Example 5), Cos7; format: cell-based; conditions: Tables 5-12
Procedure: as §1

T98G = assay: Cytotoxicity against cancer cell lines (Example 5), T98G; format: cell-based; conditions: Tables 5-12; drug resistant cell line
Procedure: as §1

MOLT4 [2] = assay: Cytotoxicity against cancer cell lines (Example 5), Molt4; format: cell-based
Procedure: as §1

K562 = assay: Cytotoxicity against cancer cell lines (Example 5), K562; format: cell-based; conditions: Tables 5-12
Procedure: as §1

EU1 = assay: Cytotoxicity against cancer cell lines (Example 5), EU1; format: cell-based; conditions: Tables 5-12
Procedure: as §1

HeLa [3] = assay: MTT cytotoxicity evaluation of series 1 and 2 rhein analogues, HeLa (Tables 3, 4); format: cell-based; conditions: Homo sapiens, HeLa
MOLT4 [4] = assay: MTT cytotoxicity evaluation of series 1 and 2 rhein analogues, MOLT4 (Tables 3, 4); conditions: Homo sapiens, MOLT-4, read-out: IC50 (μM) against MOLT4
[5] = Tables 5-12, read-out: IC50 Molt4
[6] = MTT, Tables 3 and 4, read-out: IC50 (μM) against HeLa

Structure (SMILES)	IC50 (HeLa [1])	IC50 (KB)	IC50 (Cos7)	IC50 (T98G)	IC50 (MOLT4 [2]; [5])	IC50 (K562)	IC50 (EU1)	IC50 (MOLT4 [2]; cell line not given, matches Table 8 Molt4, read-out: IC50 value)	IC50 (HeLa [3]; [6])	IC50 (MOLT4 [4])	IC50 (HeLa [3]; less than 50% cells killed at highest concentration, R^2 < 0.8, read-out: IC50 (μM) against HeLa, value inside parenthesis calculated by Prism 4 using sigmoidal curve fitting)
C=CCOc1cccc2c1C(=O)c1c(OCC=C)cc(NC(=O)CI)cc1C2=O [BW-AQ-163]	> 50 µM	14.7 µM	> 50 µM	> 50 µM	> 25 µM	> 25 µM	> 25 µM				
O=C(CBr)Nc1cc(O)c2c(c1)C(=O)c1cccc(OCc3ccccc3)c1C2=O [BW-AQ-127]	5.6 ± 0.63 µM	5.4 ± 2.5 µM	1.7 ± 0.43 µM	13.8 ± 2.5 µM		1.95 ± 0.58 µM	0.084 ± 0.058 µM	0.028 µM			
C=CCOc1cccc2c1C(=O)c1c(OCC=C)cc(C(=O)N=[N+]=[N-])cc1C2=O [BW-AQ-154]	24.3 µM	> 50 µM	19.4 µM	> 50 µM	6.66 µM	19.5 µM	3 µM				
CN1CCN(CC(=O)Nc2cc(O)c3c(c2)C(=O)c2cccc(O)c2C3=O)CC1 [Compound 9b, 1,8-Dihydroxy-3-(2′-(4″-methylpiperazin-1″-yl)-acetamido)-anthraquinone]									5.8 µM	3.1 µM	
C=CCOC(=O)c1cc(OCC=C)c2c(c1)C(=O)c1cccc(OCC=C)c1C2=O [BW-AQ-152]	27.6 µM	22.5 µM	12.5 µM	29.3 µM	> 25 µM	> 25 µM	> 25 µM				
COc1cccc2c1C(=O)c1c(OC)cc(N)cc1C2=O [BW-AQ-145]	> 50 µM	> 50 µM	> 50 µM	> 50 µM	> 25 µM	> 25 µM	> 25 µM				
CCOc1cccc2c1C(=O)c1c(OCC)cc(NC(=O)CO)cc1C2=O [BW-AQ-157]	6.35 µM	9.5 µM	5 µM	15.4 µM	0.42 µM	1.8 µM	0.358 µM				
O=C(CN1CCCCC1)Nc1cc(O)c2c(c1)C(=O)c1cccc(O)c1C2=O [Compound 9d, 1,8-Dihydroxy-3-(2′-piperidinyl-acetamido)-anthraquinone]									33 µM	4.1 µM	
COc1ccc(-c2cc(O)c3c(c2)C(=O)c2cccc(O)c2C3=O)cc1 [Compound 26f, 1,8-Dihydroxy-3-(4′-methoxyphenyl)-anthraquinone]									> 100 µM	29 µM	20 µM
CCOc1cccc2c1C(=O)c1c(OCC)cc(NC(=O)CNC)cc1C2=O [BW-AQ-167]	0.753 µM	1.54 µM	5.51 µM	11.2 µM	21.5 µM	2.05 µM	13.6 µM				
O=C(OCc1ccccc1)c1cc(OCc2ccccc2)c2c(c1)C(=O)c1cccc(OCc3ccccc3)c1C2=O [BW-AQ-148]	18.6 µM	> 50 µM	> 50 µM	> 50 µM	> 25 µM	> 25 µM	> 25 µM				
[N-]=[N+]=NCCOc1cccc2c1C(=O)c1c(OCCN=[N+]=[N-])cc(C(=O)N=[N+]=[N-])cc1C2=O [BW-AQ-122]	> 12.5 µM	> 50 µM	> 50 µM	> 12.5 µM	> 1.6 µM	> 6.25 µM					
[N-]=[N+]=NC(=O)c1cc(OCc2ccccc2)c2c(c1)C(=O)c1cccc(OCc3ccccc3)c1C2=O [BW-AQ-149]	> 50 µM	> 50 µM	> 50 µM	> 50 µM	> 25 µM	> 25 µM	> 25 µM				
C=CCOc1cccc2c1C(=O)c1c(OCC=C)cc(N)cc1C2=O [BW-AQ-155]	~50 µM	12.5 µM	> 50 µM	> 50 µM	> 25 µM	> 25 µM	> 25 µM				
C=CCOc1cccc2c1C(=O)c1c(OCC=C)cc(NC(=O)CN=[N+]=[N-])cc1C2=O [BW-AQ-164]	> 50 µM	> 50 µM	> 50 µM	> 50 µM	> 25 µM	> 25 µM	> 25 µM				
COc1cccc2c1C(=O)c1c(OC)cc(NC(=O)CN=[N+]=[N-])cc1C2=O [BW-AQ-137]	24.6 µM	23.6 µM	> 50 µM	> 50 µM	> 1.6 µM	> 6.25 µM					
